Assay results: patent US9326973B2, “Hepatitis C virus inhibitors” (priority 2012, dated 2016)

Assays:
[1] = tested on: HCV replicon, genotype 1a Y93H variant with tyrosine 93 changed to histidine in the NS5A protein; format: cell-based, HCV genotype 1a; conditions: test compound titrated in combination with a fixed 200 nM compound N47; genotype 1a Y93H replicon
Description: Combinations can be examined for synergistic activity using a variety of putative NS5A-targeting compounds and a variety of test compounds. […] The test compound can be chosen from compounds exemplified below, which were prepared by methods known in the art, or from others disclosed in the literature.
Similarly, BMS-790052 can be tested singly and in combination with a fixed amount of compound N47 in the HCV replicon cell based assay consisting of the genotype 1a Y93H variant with tyrosine 93 changed to histidine in the NS5A protein.

[2] = tested on: HCV replicon, genotype 1a L31V variant with leucine 31 changed to valine in the NS5A protein; format: cell-based, HCV genotype 1a; conditions: test compound titrated in combination with a fixed 200 nM compound N47; genotype 1a L31V replicon

SMILES | Fold-Synergistic G-1a (Y93H) [1] | Fold-Synergistic G-1a (L31V) [2]
O=C(Nc1ccc(/C=C/c2ccc(NC(=O)[C@@H]3CCCN3C(=O)Cc3ccccc3)cc2)cc1)C1CCCN1C(=O)Cc1ccccc1 (stereo partly shown) | <10 Fold | <10 Fold
CN(C)[C@@H](C(=O)N1CCCC1c1cnc(-c2ccc3nc([C@@H]4CCCN4C(=O)[C@@H](c4ccccc4)N(C)C)[nH]c3c2)o1)c1ccccc1 (stereo partly shown) | <10 Fold | <10 Fold
